Data: patent KR20210056931A, “피리메타민을 유효성분으로 포함하는 면역 관련 질환의 치료 또는 예방용 약학 조성물” (priority 2019, dated 2021)

Assays:
[1] = Hematological examination, Experiment 6-4; format: in vivo, mouse
TNF-α [2] = assay: Plasma TNF-α (ELISA), Experiment 6-5; format: in vivo, mouse; details: for Plasma TNF-α: Day 14
TNF-α [3] = assay: TNF-α expression inhibition in Raw264.7, comparison with DMARDs, Experiment 2-1; format: cell-based; details: for TNF-α expression: 6 h pretreatment, LPS 10 ng/mL, MTX 344 nM, HCQ 610 nM, PYR 50 ng/mL, CsA 391 ng/mL, AZA 25 ng/mL, SFZ 750 ng/mL
NF-ĸB(p65) = assay: NF-kB activity (p65 nuclear translocation) in Raw264.7, Experiment 4; format: cell-based; details: 50 ng/ml, 2 h pretreatment; LPS 100 ng/ml 2 h; Fig. 7
STAT3 = STAT3 activity (nuclear translocation) in Raw264.7, Experiment 3; format: cell-based; details: 50 ng/ml, 2 h pretreatment; LPS 100 ng/ml 16 h; Fig. 6
TNF-α [4] = assay: TNF-α expression inhibition in Raw264.7 by treatment time, Experiment 1-2; format: cell-based; details: LPS 100 ng/ml
[5] = test system: rheumatoid arthritis model, DBA-1J Mice [류마티스 관절염 모델]; assay: Histopathological examination in rheumatoid arthritis animal model, Experiment 5; format: in vivo, mouse; details: Day 14
[6] = test system: rheumatoid arthritis model, DBA-1J Mice [류마티스 관절염 모델]; assay: Paw edema in rheumatoid arthritis animal model, Experiment 5; format: in vivo, mouse

CCc1nc(N)nc(N)c1-c1ccc(Cl)cc1 [피리메타민, Pyrimethamine]
MPV ([1]; Day 14, G7: Py 1 mpk qd IP): 7.5 ± 0.6 fL | PLT ([1]; Day 14, G7: Py 1 mpk qd IP): 403±182 10^3 cell/μL | RBC ([1]; Day 14, G7: Py 1 mpk qd IP): 9.68±0.63 10^6 cell/μL | RDW ([1]; Day 14, G7: Py 1 mpk qd IP): 22±2.8% | WBC ([1]; Day 14, G7: Py 1 mpk qd IP): 5.4±2.01 10^3 cell/μL | %BASO ([1]; Day 14, G8: Py 1 mpk qd PO): 0.6±0.2% | %EOS ([1]; Day 14, G8: Py 1 mpk qd PO): 1.6±0.5% | %LUC ([1]; Day 14, G8: Py 1 mpk qd PO): 2±0.8% | %LYM ([1]; Day 14, G8: Py 1 mpk qd PO): 45±8.1% | %MONO ([1]; Day 14, G8: Py 1 mpk qd PO): 4.7±1.2% | %NEUT ([1]; Day 14, G8: Py 1 mpk qd PO): 46.3±9.0% | %RETIC ([1]; Day 14, G8: Py 1 mpk qd PO): 6.74±3.63% | HCT ([1]; Day 14, G8: Py 1 mpk qd PO): 44.8±2.5% | HDW ([1]; Day 14, G8: Py 1 mpk qd PO): 2.31 ± 0.25 g/dL | HGB ([1]; Day 14, G8: Py 1 mpk qd PO): 12.3 ± 0.6 g/dL | MCH ([1]; Day 14, G8: Py 1 mpk qd PO): 12.6 ± 0.4 pg | MCV ([1]; Day 14, G8: Py 1 mpk qd PO): 45.6 ± 0.9 fL | MPV ([1]; Day 14, G8: Py 1 mpk qd PO): 6.3 ± 0.1 fL | PLT ([1]; Day 14, G8: Py 1 mpk qd PO): 1380±72 10^3 cell/μL | RBC ([1]; Day 14, G8: Py 1 mpk qd PO): 9.82±0.67 10^6 cell/μL | RDW ([1]; Day 14, G8: Py 1 mpk qd PO): 21.5±3% | WBC ([1]; Day 14, G8: Py 1 mpk qd PO): 2.67±0.58 10^3 cell/μL | Hematotoxicity (in words) ([1]; G7, intraperitoneal injection): 혈소판 수치가 감소하는 독성이 나타났다 | Hematotoxicity (in words) ([1]; oral groups G8-G12): 혈액 독성이 나타나지 않음 | Plasma TNF-α (TNF-α [2]; G7: Py 1 mg/kg/day QD IP): 879.4 pg/mL | Plasma TNF-α (TNF-α [2]; G8: Py 1 mg/kg/day BID PO): 867.2 pg/mL | Plasma TNF-α (TNF-α [2]; G9: Py 1 mg/kg/day QD PO): 863.5 pg/mL | Plasma TNF-α (TNF-α [2]; G10: Py 3 mg/kg/day BID PO): 818.8 pg/mL | Plasma TNF-α (TNF-α [2]; G11: Py 5 mg/kg QD PO): 763.7 pg/mL | Plasma TNF-α (TNF-α [2]; G12: Py 15 mg/kg/day QD PO): 728.0 pg/mL | Plasma TNF-α (in words) (TNF-α [2]; pyrimethamine oral groups): 농도 의존적으로 혈장 TNF-α 수치가 감소 | TNF-α expression (TNF-α [3]; 2hr): 101.3 pg/mL | TNF-α expression (TNF-α [3]; 24hr): 963.4 pg/mL | TNF-α expression inhibition compared with comparative examples (TNF-α [3]; drug treatment 8 h or 24 h, pyrimethamine 50 ng/ml): 비교예들에 비해 TNF-α의 발현량을 월등히 억제하였고 | NF-ĸB(p65) activity (NF-ĸB(p65)): NF-ĸB(p65)의 활성이 현저히 저하 | STAT3 nuclear translocation (STAT3): LPS 16 시간 자극에 의한 STAT3의 핵이동을 억제함 | TNF-α expression, concentration dependence (TNF-α [4]; 2 or 50 ng/ml, 1 or 2 h): TNF-α의 발현량이 피리메타민의 농도 의존적으로 줄어드는 | TNF-α expression (TNF-α [4]; PYR 2 ng/ml, 1hr): 916.0 pg/mL | TNF-α expression (TNF-α [4]; PYR 2 ng/ml, 2hr): 1101.2 pg/mL | TNF-α expression (TNF-α [4]; PYR 50 ng/ml, 1hr): 686.4 pg/mL | TNF-α expression (TNF-α [4]; PYR 50 ng/ml, 2hr): 889.0 pg/mL | Bone destruction ([5]; G4: Py 10 mg/kg/day PO): 0.9±0.9 | Cartilage damage ([5]; G4: Py 10 mg/kg/day PO): 1.3±1.0 | Histopathological examination, total ([5]; G4: Py 10 mg/kg/day PO): 3.6±2.7 | Synovium proliferation ([5]; G4: Py 10 mg/kg/day PO): 1.4±1.1 | Bone destruction ([5]; G5: Py 30 mg/kg/day PO): 0.4±0.8 | Cartilage damage ([5]; G5: Py 30 mg/kg/day PO): 0.3±0.5 | Histopathological examination, total ([5]; G5: Py 30 mg/kg/day PO): 1.1±1.5 | Synovium proliferation ([5]; G5: Py 30 mg/kg/day PO): 0.4±0.8 | Efficacy by histopathology compared with methotrexate (in words) ([5]; Py 10 and 30 mg/kg/day PO): 메토트렉세이트와 비교할 때에도 보다 우수한 효과 | Therapeutic efficacy by histopathology (in words) ([5]; Py 10 and 30 mg/kg/day PO): 농도 의존적으로 치료 효능을 보였으며 | Paw edema, LEFT ([6]; Day 0, G4: Py 10 mg/kg/day PO): 0.11 ± 0.01 mL | Paw edema, RIGHT ([6]; Day 0, G4: Py 10 mg/kg/day PO): 0.10 ± 0.00 mL | Paw edema, LEFT ([6]; Day 0, G5: Py 30 mg/kg/day PO): 0.11 ± 0.02 mL | Paw edema, RIGHT ([6]; Day 0, G5: Py 30 mg/kg/day PO): 0.10 ± 0.01 mL | Paw edema, LEFT ([6]; Day 14, G4: Py 10 mg/kg/day PO): 0.15 ± 0.03 mL | Paw edema, RIGHT ([6]; Day 14, G4: Py 10 mg/kg/day PO): 0.12 ± 0.01 mL | Paw edema, LEFT ([6]; Day 14, G5: Py 30 mg/kg/day PO): 0.11 ± 0.03 mL | Paw edema, RIGHT ([6]; Day 14, G5: Py 30 mg/kg/day PO): 0.11 ± 0.02 mL
